{
  "source": "patent US20160228452A1",
  "about": "“TREATMENT OF METABOLIC DISEASES BY INHIBTION OF HTR2A OR HTR3” (Korea Advanced Institute of Science and Technology, priority 2014, published 2016)",
  "key": {"Htr3 [1]": {"molecular_target": "T1, Htr3 (Mus musculus, UniProt P23979)", "T1 construct": "we explored the direct actions of Htr3 on BAT using immortalized brown adipocytes (IBAs); endogenous in cells; host or cells: differentiated immortalized brown adipocytes (IBAs)", "T1 sequence (P23979 24-489)": "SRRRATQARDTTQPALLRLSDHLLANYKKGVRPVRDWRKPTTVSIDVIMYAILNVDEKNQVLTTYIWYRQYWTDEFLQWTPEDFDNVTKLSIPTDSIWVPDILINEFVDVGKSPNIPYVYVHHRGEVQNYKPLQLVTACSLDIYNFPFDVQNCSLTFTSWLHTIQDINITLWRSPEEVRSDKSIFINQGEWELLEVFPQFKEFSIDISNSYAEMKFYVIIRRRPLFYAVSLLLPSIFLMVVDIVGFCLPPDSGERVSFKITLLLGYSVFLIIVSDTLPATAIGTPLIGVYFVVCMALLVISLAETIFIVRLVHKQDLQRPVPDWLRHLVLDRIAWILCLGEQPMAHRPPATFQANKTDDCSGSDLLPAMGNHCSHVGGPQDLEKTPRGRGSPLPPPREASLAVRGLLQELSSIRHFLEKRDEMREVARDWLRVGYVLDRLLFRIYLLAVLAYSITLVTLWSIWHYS", "T1 sequence (Q9JHJ5 22-437 partner)": "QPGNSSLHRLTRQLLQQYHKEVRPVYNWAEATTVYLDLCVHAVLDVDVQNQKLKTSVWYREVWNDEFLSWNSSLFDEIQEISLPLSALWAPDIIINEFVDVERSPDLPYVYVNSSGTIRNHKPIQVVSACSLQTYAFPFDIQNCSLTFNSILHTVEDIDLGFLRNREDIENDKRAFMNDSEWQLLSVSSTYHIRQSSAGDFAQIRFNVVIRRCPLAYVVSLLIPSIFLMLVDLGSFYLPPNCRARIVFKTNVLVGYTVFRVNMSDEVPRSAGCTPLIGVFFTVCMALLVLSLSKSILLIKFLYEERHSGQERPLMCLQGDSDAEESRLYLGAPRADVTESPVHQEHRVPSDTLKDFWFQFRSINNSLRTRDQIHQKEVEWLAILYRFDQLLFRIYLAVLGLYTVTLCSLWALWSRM", "assay": "OCR assay (Seahorse XF24) in IBAs", "assay_type": "cell-based", "settings": "fully differentiated IBAs pretreated 30 min, then β3 agonist CL-316243", "description": "IBAs were cultured in DMEM supplemented with 10% FBS and P/S in a humidified atmosphere of 5% CO2 at 37° C.^32. After reaching 95% confluence, the cells were induced to differentiate using DMEM with 10% FBS, 0.5 μg/mL insulin, 1 nM T3, 0.125 mM indomethacin, 2 μg/mL dexamethasone, 0.5 μM IBMX and P/S (day 0). After two days, the medium was replaced with DMEM supplemented with 10% FBS, 0.5 μg/mL insulin, 1 nM T3 and P/S (day 2), and it was changed every two days from days 4 to 8. […] The OCRs of the cells were measured using a Seahorse XF analyzer (Seahorse Bioscience, Billerica, Mass., USA). After seeding IBAs on an XF-24 plate, the cells were incubated and differentiated using the protocol described above. Fully differentiated IBAs were pre-treated with PBS and ondansetron for 30 min. Then, the IBAs were treated with the β3 agonist (CL-316243) and the mitochondrial inhibitors oligomycin and rotenone/antimycin. The OCRs were calculated and recorded by a sensor cartridge and the Seahorse XF-24 software."}, "Htr3 [2]": {"molecular_target": "T1, Htr3", "assay": "Real-time PCR of thermogenic genes in IBAs", "assay_type": "cell-based", "settings": "2 h after ondansetron treatment", "description": "(§1) IBAs were cultured in DMEM supplemented with 10% FBS and P/S in a humidified atmosphere of 5% CO2 at 37° C.^32. After reaching 95% confluence, the cells were induced to differentiate using DMEM with 10% FBS, 0.5 μg/mL insulin, 1 nM T3, 0.125 mM indomethacin, 2 μg/mL dexamethasone, 0.5 μM IBMX and P/S (day 0). After two days, the medium was replaced with DMEM supplemented with 10% FBS, 0.5 μg/mL insulin, 1 nM T3 and P/S (day 2), and it was changed every two days from days 4 to 8. We confirmed that these cell lines are free from Mycoplasma infection.\n(§2) Total RNA was extracted from the mouse tissues or cell lines using TRIzol reagent (Invitrogen) according to the manufacturer's protocol. After TURBO DNase (Invitrogen) treatment, 2 μg of total RNA was used to generate complementary DNA with Superscript III reverse transcriptase (Invitrogen). To analyze gene expression, real-time PCR was performed with a ViiA 7 Real-Time PCR system (Applied Biosystems) and the Power SYBR Green PCR master mix (Applied Biosystems). Relative quantification was based on the ddCt method, and ActB was used as an endogenous control (internal control)."}, "Htr3 [3]": {"molecular_target": "T1, Htr3", "assay": "cAMP assay (competitive ELISA) in immortalized brown adipocytes", "assay_type": "cell-based", "description": "as §1\nDifferentiated IBAs were treated with 1 uM ondansetron or 100 nM m-CPBG or 1 uM CL-316243 for 15 min. 1 uM […] was used as a positive control. The cAMP competitive ELISA (Promega) was performed according to the manufacturer's instruction. Briefly, cAMP was extracted by adding 0.1 M HCl with 0.5% triton X-100 to the cells. After centrifugation at 600 g for 10 min, the supernatant was used for the determination of cAMP levels by competitive cAMP ELISA."}, "Htr3 [4]": {"molecular_target": "T1, Htr3", "assay": "Western blot for phosphorylation of PKA pathway components in IBAs", "assay_type": "cell-based", "settings": "IBAs pretreated with ondansetron, in the presence of β3-adrenergic receptor agonist", "description": "as §1\nWhole-cell lysates were extracted by incubating cells in RIPA buffer (25 mM Tris-HCl pH 7.6, 150 mM NaCl, 1% NP-40, 1% sodium deoxycholate, 0.1% SDS) plus protease inhibitors (Roche). Supernatant was collected following a brief centrifuge, and protein concentrations in the supernatant were determined using the BCA Protein Assay Kit (Thermo Scientific, Rockford, Ill., USA). The cell lysates were then mixed with equal volumes of 2× Laemmli buffer (4% SDS, 20% glycerol, 10% 2-mercaptoethanol, 0.01% bromophenol blue, and 120 mM Tris-HCl, pH 6.8) and boiled for 5 min at 95° C. Then, the protein samples were separated by SDS-PAGE and transferred to a PVDF membrane (Millipore). […]"}, "[5]": {"tested_on": "SV cells from Tph1 FKO mice", "assay": "Ex vivo differentiation of SVF from BAT of Tph1 FKO mice, Ucp1 mRNA", "assay_type": "cell-based", "settings": "after 8 days of differentiation", "description": "The stromal vascular fraction of epididymal, inguinal and BAT from 6- to 7-week-old mice was separated by collagenase digestion. Briefly, the adipose tissues were dissected, minced and digested with 0.2% collagenase A (Roche) in Hank's balanced salts solution (Sigma) for 45 min at 37° C. with constant shaking. Mature adipocytes and connective tissues were separated from the cell pellet by centrifugation at 800×g for 10 min at 4° C. The cell pellet was then suspended with RBC lysis buffer (Sigma) and filtered through a 40-μm mesh filter (BD bioscience). The pelleted stromal vascular cells (SVCs) were re-suspended in DMEM containing 10% FBS and seeded in 6-well plates for adipogenic differentiation.\nas §2"}, "Htr2a [6]": {"molecular_target": "T2, Htr2a (Mus musculus, UniProt P35363)", "T2 sequence (P35363 whole entry)": "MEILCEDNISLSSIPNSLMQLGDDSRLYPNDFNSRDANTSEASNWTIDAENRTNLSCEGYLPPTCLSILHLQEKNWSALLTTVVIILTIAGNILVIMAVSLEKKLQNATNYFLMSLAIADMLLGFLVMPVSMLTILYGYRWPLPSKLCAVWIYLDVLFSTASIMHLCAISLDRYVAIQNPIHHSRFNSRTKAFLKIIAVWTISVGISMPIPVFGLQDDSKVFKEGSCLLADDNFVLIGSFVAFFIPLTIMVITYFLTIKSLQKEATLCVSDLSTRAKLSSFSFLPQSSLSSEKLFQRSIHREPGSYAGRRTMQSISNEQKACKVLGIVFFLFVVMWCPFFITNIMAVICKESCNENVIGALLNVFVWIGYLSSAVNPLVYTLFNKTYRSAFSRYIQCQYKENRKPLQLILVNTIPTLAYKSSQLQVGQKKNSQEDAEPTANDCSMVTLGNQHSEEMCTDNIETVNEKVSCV", "assay": "Glycerol release assay (lipolysis) in 3T3-L1 mature adipocytes", "assay_type": "cell-based, murine", "settings": "24 h", "description": "(§3) Murine 3T3-L1 cells (American Type Culture Collection) were cultured in DMEM supplemented with 10% fetal calf serum and 100 μg/mL P/S in a humidified atmosphere of 5% CO2 at 37° C. Two days after reaching confluence, the cells were induced to differentiate using medium supplemented with 0.5 mM IBMX, […] and 1 μM dexamethasone (day 0). After two days, the medium was replaced with DMEM supplemented with […] in 10% FBS and P/S (day 2), and it was changed every two days from days 4 to 8.\nLipolysis was measured as the rate of glycerol release using a free glycerol reagent (Sigma) following the manufacturer's protocol. Briefly, fully differentiated 3T3-L1 adipocytes in a 24-well plate were incubated with 5-HT or DOI in Krebs Ringer phosphate buffer (136 mM NaCl, 4.7 mM KCl, 10 mM NaPO4, 0.9 mM MgSO4, and 0.9 mM CaCl2) containing 4% fatty acid-free bovine serum albumin (Sigma) for 24 h. Isoproterenol was used as a positive control. After incubation, 10 μL of the cell culture supernatant was mixed with 0.8 mL of the free glycerol reagent, and the mixture was then incubated at 37° C. for 5 min. The absorbance of the sample was determined at 540 nm using a spectrophotometer (DU730 Life Science UV/Vis, Beckman Coulter, Indianapolis, Ind., USA). The amount of released glycerol was expressed relative to the cellular protein content."}, "Htr2a [7]": {"molecular_target": "T2, Htr2a", "assay": "Real-time PCR of lipogenic genes in 3T3-L1 mature adipocytes", "assay_type": "cell-based, murine", "description": "as §3, §2"}, "Htr2a [8]": {"molecular_target": "T2, Htr2a", "assay": "Oil Red O staining of 3T3-L1 adipocytes", "assay_type": "cell-based, murine", "settings": "treatment during differentiation, absorbance at 520 nm", "quoted_text": "Murine 3T3-L1 cells (American Type Culture Collection) were cultured in DMEM supplemented with 10% fetal calf serum and 100 μg/mL P/S in a humidified atmosphere of 5% CO2 at 37° C. Two days after reaching confluence, the cells were induced to differentiate using medium supplemented with 0.5 mM IBMX, 1 mg/mL insulin and 1 μM dexamethasone (day 0). After two days, the medium was replaced with DMEM supplemented with 1 mg/mL insulin in 10% FBS and P/S (day 2), and it was changed every two days from days 4 to 8. After full differentiation (day 8), 3T3-L1 adipocytes were fixed with 3.7% (w/v) formaldehyde in PBS for 15 min at room temperature and then washed three times with PBS. Then, the cells were stained with filtered Oil Red 0 solution (1.5 mg/mL 60% (v/v) isopropanol) for 30 min and then rinsed twice with distilled water. To quantify the amount of Oil Red 0 staining, the cells were eluted with 100% isopropranol for 10 min, and the absorbance densities of the extracts were measured at 520 nm using a VersaMax microplate reader (Molecular Devices, Sunnyvale, Calif., USA)."}},
  "note": "“Also recorded” adds a separate entry of the source.",
  "data": [
    {"compound": "Cc1nccn1CC1CCc2c(c3ccccc3n2C)C1=O", "note": "(racemic) [ondansetron, (RS)-9-methyl-3-[(2-methyl-1H-imidazol-1-yl)methyl]-2,3-dihydro-1H-carbazol-4(9H)-one]", "values": [
      {"measurement": "oxygen consumption rate (OCR)", "setting": "Htr3 [1]", "value": "increased the OCR synergistically; also recorded: increased the oxygen consumption rate"},
      {"measurement": "mRNA expression of thermogenic genes (Ucp1, Ppargc1a)", "setting": "Htr3 [2]", "value": "increased"},
      {"measurement": "cAMP level after β3AR stimulation", "setting": "Htr3 [3]; IBAs pretreated with 1 uM ondansetron, in the presence of β3-adrenergic receptor agonist CL 316243", "value": "increased cAMP levels"},
      {"measurement": "cAMP level in the absence of β3AR agonist", "setting": "Htr3 [3]; IBAs, 1 uM ondansetron or 100 nM m-CPBG, 15 min", "value": "did not affect cAMP levels"},
      {"measurement": "phosphorylation of HSL and PKA substrate (PKA pathway components) after β3AR stimulation", "setting": "Htr3 [4]", "value": "increased phosphorylation"}
    ]},
    {"compound": "NCCc1c[nH]c2ccc(O)cc12", "note": "[5-HT, 5-hydroxytryptamine]", "values": [
      {"measurement": "Ucp1 mRNA level", "setting": "[5]", "value": "abrogated; also recorded: suppressed"},
      {"measurement": "glycerol release (lipolysis)", "setting": "Htr2a [6]", "value": "suppressed lipolysis; also recorded: reduced the glycerol release"}
    ]},
    {"compound": "COc1cc(CC(C)N)c(OC)cc1I", "note": "(stereo not shown) [DOI, 2,5-dimethoxy-4-iodoamphetamine]", "values": [
      {"measurement": "glycerol release (lipolysis)", "setting": "Htr2a [6]", "value": "suppressed lipolysis; also recorded: reduced the glycerol release"},
      {"measurement": "mRNA levels of lipogenic genes", "setting": "Htr2a [7]", "value": "increased"}
    ]},
    {"compound": "O=C(c1ccc(F)cc1)C1CCN(CCn2c(=O)[nH]c3ccccc3c2=O)CC1", "note": "[ketanserin, 3-{2-[4-(4-fluorobenzoyl)piperidin-1-yl]ethyl}quinazoline-2,4(1H,3H)-dione]", "values": [
      {"measurement": "lipogenesis (optical density of Oil Red O extract)", "setting": "Htr2a [8]", "value": "decreased lipogenesis; also recorded: reduced the optical density of the extract"}
    ]}
  ]
}
